These results are taken from patent US20110093959A1, “CRYPTOTIS PARVA SCREENING MODEL FOR ANTIEMETIC POTENTIAL” (priority 2008, published 2011).

Holding throughout (assay type): in vivo, Cryptotis parva
For data set [1], the system named is LTC4-induced emesis in the Least Shrew. Nature of the data set: CysLT1 antagonists against leukotriene LTC4-induced emesis. To be noted: dose-dependent. Here is the method: Emetic parameters were recorded for 30min post emetic injection.
Another data set deals with NK1 receptor. The data set can be described thus: Histological analysis of NK1 receptor immunotoxic lesions with SSP-saporin. Here is the method:
(§1) Immunohistochemistry was performed by blocking free-floating sections with 10% normal horse serum (NHS) and 3% hydrogen peroxide in PB with 0.3% Triton X-100 (TX) for 30 min After rinsing three times in PB, tissue was put in either: (1) rat anti-Substance P monoclonal antibody (Chemicon, 1:400); (2) sheep anti-Fos polyclonal (Chemicon, 1:600); or (3) rabbit anti-NK1 receptor polyclonal (Santa Cruz, 1:500), with 5% NHS and 0.3% TX, and incubated overnight at room temperature with gentle shaking. After rinsing three times in PB, the tissue was placed in biotinylated donkey anti-rat, anti-sheep, or anti-rabbit (respectively) IgG secondary antibody (Jackson Immuno, dilution 1:600). The secondary antibody was diluted in the same diluent described for the primary antibody, and the tissue incubated at room temperature with shaking for 75 min. After rinsing three times in PB, tissue was incubated for 60 min in horse radish peroxidase-conjugated avidin-biotin complex (Vector Labs Vectastain kit, diluted 1:2) in PB. Tissue was then rinsed twice in PB, then once in imidazole-acetate buffer (0.1 M, pH7.4), then reacted for 6 min in 0.0006% hydrogen peroxide with 2% nickel ammonium sulfate-enhanced diaminobenzidine (DAB, 0.05% in 0.1 M imidazole-acetate buffer).
To better localize the induction of emesis by GR73632, dose-response curves were generated for shrews pretreated either with the NK1 receptor immunotoxin SSP-saporin or saline and challenged four days later with varying doses of GR73632 (0, 1, 2.5, or 5 mg/kg, i.p., n=8-10 per group). Briefly, thirty shrews were injected i.p. with 1.2 mg/kg SSP-saporin in sterile saline, and thirty-five shrews were injected with sterile saline alone. In addition, two more shrews were injected with 1.2 mg/kg unconjugated saporin (saporin; ATS) and two more with 1.2 mg/kg of saporin conjugated to a nonspecific peptide sequence (Blank-saporin; ATS). […] Each shrew was monitored for 30 min post-injection and vomiting and scratching behaviors quantified. […]

The test system of a further data set is Least Shrew. Nature of the data set: Dose response emesis and scratching studies with tachykinin receptor agonists. Particulars: for increase in emesis frequency vs vehicle control: 30 min observation. The source says: The present protocols were based upon preliminary studies as well as published findings in the Least Shrew. Darmani, 2001a; Darmani et al., 69 Pharmacol. Biochem. Behay. 239-49 (2001b). On the test day, the shrews were allowed to acclimate to the test laboratory for at least one hour prior to experimentation. To habituate the animals to the test environment, each shrew was randomly selected and transferred to a 20 cm×18 cm×21 cm clean clear plastic cage and offered four mealworms (Tenebrio sp.) 30 min prior to experimentation. […]
(§2) The data on the frequency of emesis and scratchings were analyzed by the Kruskal-Wallis (KW) nonparametric one-way analysis of variance (ANOVA) and post hoc analysis by Dunn's multiple comparisons test or Mann-Whitney test. A P value of <0.05 was necessary to attain statistical significance. The incidence of emesis (number of shrews vomiting) was analyzed by the Fisher's exact test to determine whether there were differences between groups. When appropriate, pairwise comparisons were also made by this method. Two-way analysis of variance using the Kruskal-Wallis or Fisher's exact tests were initially utilized to respectively analyze the dose-response results of GR73632 on emesis and scratching behaviors, and percentage of shrews vomiting in saporin- and corresponding saline-pretreated control shrews. […] For some emesis data, the two-tailed Mann-Whitney test was used. The SP tissue concentration data were analyzed by a one-way ANOVA followed by Dunnett's t test as post hoc analysis. Fos-IR was quantified by counting immunopositive nuclei within each hemisection containing the region of interest (ROI). The number of nuclei was averaged across sections with the ROI for each animal, and the group mean and standard error obtained.

In another data set the test system is Fos. Nature of the data set: Fos-IR in brain and enteric nervous system after GR73632. Particulars: GR73632 2.5 mg/kg i.p. Here is the method:
Shrews were given four mealworms each and GR73632 (2.5 mg/kg, i.p., or vehicle (saline)) injection. For emesis-related Fos visualization, a shrew was transcardially perfused 60 min to 75 min after vomiting occurred, typically 20 min to 35 min post-injection.
After the appropriate time period as described above, shrews were anesthetized with a lethal dose of pentobarbital ([…]) and perfused transcardially via 25 ga blunted needle connected to a peristaltic pump. The shrew was perfused first with ice cold heparinized saline (0.9% NaC1, 60 sec-90 sec), followed by ice cold 4% paraformaldehyde/5% picric acid in pH7.4, 0.1 M (10 min). Brains were removed and stored in 30% sucrose in 0.1 M phosphate buffer (PB) overnight, then embedded in blocks of 12% gelatin in 30% sucrose/PB. The blocks were postfixed for 3 hr in 2% paraformaldehyde/PB, then rinsed and immersed in 30% sucrose/PB until they sank (usually 1 hr to 2 hr). The brain block was cut on a freezing benchtop microtome (Leica) at 30 μm into five series, and stored in PB with 0.03% sodium azide.
as §1
After reacting, the tissue was rinsed thoroughly in PB and mounted onto gel-subbed slides out of PB. After air-drying, slides were dehydrated through a series of ascending ethanols (50%-75%-90%-100%), then cleared in xylene (Fisher). Cleared slides were coverslipped with DEPEX (Electron Microscopy Sciences).
Photomicrographs of regions of interest were taken at 1600×1200 pixel digital resolution with a SPOT digital camera (Diagnostic Instruments) attached to a Pentium 4 PC running version 4.0 of the SPOT software. The camera was mounted to a Nikon Eclipse E600 microscope. A calibrated scale bar was added and the photos exported to Adobe Photoshop 7, where the Photoshop brush tool was used to mark Fos+nuclei as they were counted. Relevant structures were identified using an atlas produced in lab (Ray & Darmani, 2007). Cell counts for each structure were averaged on a per-section basis and collated in a spreadsheet for statistical analysis.
The data on the frequency of emesis and scratchings were analyzed by the Kruskal-Wallis (KW) nonparametric one-way analysis of variance (ANOVA) and post hoc analysis by Dunn's multiple comparisons test or Mann-Whitney test. A P value of <0.05 was necessary to attain statistical significance. The incidence of emesis (number of shrews vomiting) was analyzed by the Fisher's exact test to determine whether there were differences between groups. When appropriate, pairwise comparisons were also made by this method. […]

Data set [2] concerns Least Shrew, NK1 receptor-intact or NK1 receptor-ablated. Nature of the data set: GR73632 emesis and scratching after SSP-saporin ablation of peripheral NK1 receptors. Here is the method:
To better localize the induction of emesis by GR73632, dose-response curves were generated for shrews pretreated either with the NK1 receptor immunotoxin SSP-saporin or saline and challenged four days later with varying doses of GR73632 (0, 1, 2.5, or 5 mg/kg, i.p., n=8-10 per group). Briefly, thirty shrews were injected i.p. with 1.2 mg/kg SSP-saporin in sterile saline, and thirty-five shrews were injected with sterile saline alone. In addition, two more shrews were injected with 1.2 mg/kg unconjugated saporin (saporin; ATS) and two more with 1.2 mg/kg of saporin conjugated to a nonspecific peptide sequence (Blank-saporin; ATS). Shrews were returned to the animal facility for three days and supplied with unrestricted food and water. Saporin-injected and Blank-saporin-injected shrews were perfused four days post-injection, and brain and gut harvested as described for immunohistochemical staining. The SSP-saporin and saline-injected shrews were divided into different groups on day 4 post-injection, and each group was injected i.p. with varying doses varying doses of 0, 1, 2.5, or 5 mg/kg GR73632 dissolved in saline. Each shrew was monitored for 30 min post-injection and vomiting and scratching behaviors quantified. Three shrews from each group were then perfused 90 min to 120 min post-injection as described previously for Fos immunohistochemistry, and brain and gut harvested. Immunohisto-chemistry (IHC) was performed for SP, NK1 receptor, and Fos as described, to qualitatively examine the extent of immunotoxic lesion in the brain and/or enteric nervous system. IHC for SP and NK1 receptor was done on the saporin- and Blank-saporin-injected shrews to verify the specificity of SSP-saporin and lack of toxicity of unconjugated saporin.
as §2

As for `O=C(Nc1cccc2c(=O)cc(-c3nnn[nH]3)oc12)c1ccc(OCCCCc2ccccc2)cc1` [Pranlucast, 4-Oxo-8-[(4-phenylbutoxy)benzoylamino]-2-(tetrazol-5-yl)-4H-1-benzopyran], in data set [1], the “prevention of LTC4-induced emesis” value is on record as “prevent LTC4-induced emesis completely”.

Consider `COc1cc(C(=O)NS(=O)(=O)c2ccccc2C)ccc1Cc1cn(C)c2ccc(NC(=O)OC3CCCC3)cc12` [zafirlucast], for which the “prevention of LTC4-induced emesis” value in data set [1] is “prevent LTC4-induced emesis completely”.

On to “[Sar^9, Met (O2)“]-SP-saporin [SSP-saporin]”, for which, in the data set on NK1 receptor (1.2 mg/kg i.p., four days), the “NK1 receptor-IR in the gut vs saline-treated controls” value was “clear loss”. Moreover, the “blood brain barrier penetration” value with NK1 receptor (peripherally administered, 1.2 mg/kg i.p.) is given as “does not penetrate the blood brain barrier”.

For the molecule “delta Ava [L-Pro^9, N-MeLeu^10]SP (7-11) [GR73632]”, the “frequency of scratching behavior vs vehicle” value in the data set on Least Shrew (2.5 mg/kg i.p.) and in the data set with Least Shrew (5 mg/kg i.p.) was “Significant enhancements” each time. The “percentage of shrews vomiting” value with Least Shrew (2.5 mg/kg i.p.) was found to be 87.5%; with Least Shrew (5 mg/kg i.p.) it was 100%; in data set [2] (GR73632 1 mg/kg, NK1 receptor-intact (saline-pretreated) shrews), 44%; in data set [2] (GR73632 1 mg/kg, saporin-pretreated NK1 receptor-ablated shrews) it was 0%; in data set [2] (GR73632 2.5 mg/kg, NK1 receptor-ablated shrews), 28%; in data set [2] (GR73632 2.5 mg/kg, NK1 receptor-intact shrews), 62.5%. Also, the “percentage of shrews vomiting” value was 100% in data set [2] (GR73632 5 mg/kg, NK1 receptor-ablated shrews) and 100% in data set [2] (GR73632 5 mg/kg, NK1 receptor-intact shrews). The “increase in emesis frequency vs vehicle control” value came to 438% with Least Shrew (2.5 mg/kg i.p.) and 575% in the data set with Least Shrew (5 mg/kg i.p.). In addition, the “onset of first emesis after injection” value in the data set with Least Shrew (i.p. agonist injection) lay within 3 to 4 min. Moreover, the “Fos-IR in gastrointestinal enteric nervous system vs saline” value in the data set with Fos is “significant differences”. Moreover, in the data set on Fos (N=6), the “shrews in which vomiting was induced” value is listed as “five of six”. Further, in the data set with Fos (mean ± standard error), the “Fos-IR nuclei per coronal hemisection, AP” value was determined as 2.4 ± 1.2. The “Fos-IR nuclei per coronal hemisection, DMNX” value in the data set with Fos (mean ± standard error) is given as 3.3 ± 1.0. Also, in the data set with Fos (mean ± standard error), the “Fos-IR nuclei per coronal hemisection, NTS” value was found to be 8.2 ± 1.1. Moreover, the “Fos-IR nuclei per coronal hemisection, PFC” value in the data set with Fos (mean ± standard error) stood at 58.4 ± 14.2. For the same molecule, the number of vomits entry in data set [2] (GR73632 1 mg/kg, normal shrews) was “about two vomits”. The “bouts of vomiting, ablated vs intact shrews” value in data set [2] (GR73632 5 mg/kg, NK1 ablated shrews) was “significantly less bouts of vomiting”. In addition, the number of scratches entry in data set [2] (GR73632 1, 2.5, 5 mg/kg, NK1 receptor-ablated shrews) is “increased in a significant manner at all tested doses”. For the same molecule, the “duration of expulsion of food/liquid” value in data set [2] (NK1 receptor-ablated shrews) was 15 to 30 s. In data set [2] (NK1 receptor-intact animals), the “duration of emesis (each vomit expulsion)” value fell in the range of 2 to 4 s.

saporin: the “NK1 receptor-IR and SP-IR vs control shrews” value with NK1 receptor (1.2 mg/kg, four days post-injection) is “not different”.
